According to patent US20230278972A1, “SUBSTITUTED HALOALKYL SULFONANILIDE HERBICIDES” (FMC Corporation, priority 2020, published 2023):

Key:
Type in all cases: in vivo
[1] = test system: barnyardgrass (Echinochloa crus-galli); assay: Test A preemergence, barnyardgrass; details: Preemergence; for Barnyardgrass plant response rating: 125 g ai/ha, visual injury on 0 to 100 scale (0 no effect, 100 complete control), approximately 10 days; for Plant response rating, Barnyardgrass: 500 g ai/ha, 0 to 100 scale (0 no effect, 100 complete control)
Excerpt: (§1) Seeds of plant species selected from barnyardgrass (Echinochloa crus-galli), kochia (Bassia scoparia), ragweed (common ragweed, Ambrosia artemisiifolia), Ryegrass, Italian (Italian ryegrass, Lolium multiflorum), Foxtail, Giant (giant foxtail, Setaria faberi), and pigweed (Amaranthus retroflexus) were planted into a blend of loam soil and sand and treated preemergence with a directed soil spray using test chemicals formulated in a non-phytotoxic solvent mixture which included a surfactant. At the same time, plants selected from these weed species and also wheat (Triticum aestivum), corn (Zea mays), blackgrass (Alopecurus myosuroides), and galium (catchweed bedstraw, Galium aparine) were planted in pots containing the same blend of loam soil and sand and treated with postemergence applications of test chemicals formulated in the same manner. Plants ranged in height from 2 to 10 cm and were in the one- to two-leaf stage for the postemergence treatment. […] A dash (-) response means no test result.

[2] = test system: kochia (Bassia scoparia); assay: Test A preemergence, kochia; details: Preemergence; for Kochia plant response rating: 125 g ai/ha, visual injury on 0 to 100 scale (0 no effect, 100 complete control), approximately 10 days; for Plant response rating, Kochia: 500 g ai/ha, 0 to 100 scale (0 no effect, 100 complete control)
Excerpt: as §1

[3] = test system: ragweed (common ragweed, Ambrosia artemisiifolia); assay: Test A preemergence, ragweed; details: Preemergence; for Ragweed plant response rating: 125 g ai/ha, visual injury on 0 to 100 scale (0 no effect, 100 complete control), approximately 10 days; for Plant response rating, Ragweed: 500 g ai/ha, 0 to 100 scale (0 no effect, 100 complete control)
Excerpt: as §1

[4] = test system: Ryegrass, Italian (Italian ryegrass, Lolium multiflorum); assay: Test A preemergence, Ryegrass, Italian; details: Preemergence; for Ryegrass, Italian plant response rating: 125 g ai/ha, visual injury on 0 to 100 scale (0 no effect, 100 complete control), approximately 10 days; for Plant response rating, Ryegrass, Italian: 500 g ai/ha, 0 to 100 scale (0 no effect, 100 complete control)
Excerpt: as §1

[5] = test system: Foxtail, Giant (giant foxtail, Setaria faberi); assay: Test A preemergence, Foxtail, Giant; details: Preemergence; for Foxtail, Giant plant response rating: 125 g ai/ha, visual injury on 0 to 100 scale (0 no effect, 100 complete control), approximately 10 days; for Plant response rating, Foxtail, Giant: 500 g ai/ha, 0 to 100 scale (0 no effect, 100 complete control)
Excerpt: as §1

[6] = test system: barnyardgrass (Echinochloa crus-galli); assay: Test A postemergence, barnyardgrass; details: Postemergence, 0 to 100 scale (0 no effect, 100 complete control); for Plant response rating, Barnyardgrass: 125 g ai/ha; for Barnyardgrass plant response rating: 500 g ai/ha, visual injury vs untreated controls after approx. 10 days
Excerpt: as §1

[7] = test system: kochia (Bassia scoparia); assay: Test A postemergence, kochia; details: Postemergence, 0 to 100 scale (0 no effect, 100 complete control); for Plant response rating, Kochia: 125 g ai/ha; for Kochia plant response rating: 500 g ai/ha, visual injury vs untreated controls after approx. 10 days
Excerpt: as §1

[8] = test system: ragweed (common ragweed, Ambrosia artemisiifolia); assay: Test A postemergence, ragweed; details: Postemergence, 0 to 100 scale (0 no effect, 100 complete control); for Plant response rating, Ragweed: 125 g ai/ha; for Ragweed plant response rating: 500 g ai/ha, visual injury vs untreated controls after approx. 10 days
Excerpt: as §1

[9] = test system: Ryegrass, Italian (Italian ryegrass, Lolium multiflorum); assay: Test A postemergence, Ryegrass, Italian; details: Postemergence, 0 to 100 scale (0 no effect, 100 complete control); for Plant response rating, Ryegrass, Italian: 125 g ai/ha; for Ryegrass, Italian plant response rating: 500 g ai/ha, visual injury vs untreated controls after approx. 10 days
Excerpt: as §1

[10] = test system: Foxtail, Giant (giant foxtail, Setaria faberi); assay: Test A postemergence, Foxtail, Giant; details: Postemergence, 0 to 100 scale (0 no effect, 100 complete control); for Plant response rating, Foxtail, Giant: 125 g ai/ha; for Foxtail, Giant plant response rating: 500 g ai/ha, visual injury vs untreated controls after approx. 10 days
Excerpt: as §1

[11] = test system: pigweed (Amaranthus retroflexus); assay: Test A postemergence, pigweed; details: Postemergence, 0 to 100 scale (0 no effect, 100 complete control); for Plant response rating, Pigweed: 125 g ai/ha; for Pigweed plant response rating: 500 g ai/ha, visual injury vs untreated controls after approx. 10 days
Excerpt: as §1

[12] = test system: wheat (Triticum aestivum); assay: Test A postemergence, wheat; details: Postemergence, 0 to 100 scale (0 no effect, 100 complete control); for Plant response rating, Wheat: 125 g ai/ha; for Wheat plant response rating: 500 g ai/ha, visual injury vs untreated controls after approx. 10 days
Excerpt: as §1

[13] = test system: corn (Zea mays); assay: Test A postemergence, corn; details: Postemergence, 0 to 100 scale (0 no effect, 100 complete control); for Plant response rating, Corn: 125 g ai/ha; for Corn plant response rating: 500 g ai/ha, visual injury vs untreated controls after approx. 10 days
Excerpt: as §1

[14] = test system: blackgrass (Alopecurus myosuroides); assay: Test A postemergence, blackgrass; details: Postemergence, 0 to 100 scale (0 no effect, 100 complete control); for Plant response rating, Blackgrass: 125 g ai/ha; for Blackgrass plant response rating: 500 g ai/ha, visual injury vs untreated controls after approx. 10 days
Excerpt: as §1

[15] = test system: galium (catchweed bedstraw, Galium aparine); assay: Test A postemergence, galium; details: Postemergence, 0 to 100 scale (0 no effect, 100 complete control); for Plant response rating, Galium: 125 g ai/ha; for Galium plant response rating: 500 g ai/ha, visual injury vs untreated controls after approx. 10 days
Excerpt: as §1

Cc1c(NS(=O)(=O)C(F)(F)F)cc(C(=O)N2CC(C)OC(C)C2)c(C)c1F (stereo not drawn) [Compound 116]
100: Plant response rating, Kochia [2] | Plant response rating, Ragweed [3]
90: Plant response rating, Barnyardgrass [1] | Kochia plant response rating [2] | Plant response rating, Ryegrass, Italian [4] | Plant response rating, Foxtail, Giant [5] | Barnyardgrass plant response rating [6] | Plant response rating, Ragweed ([8]; visual injury approx. 10 days) | Ragweed plant response rating [8] | Plant response rating, Galium ([15]; visual injury approx. 10 days) | Galium plant response rating [15]
40: Ryegrass, Italian plant response rating [4] | Blackgrass plant response rating [14]
0: Plant response rating, Foxtail, Giant ([10]; visual injury approx. 10 days) | Plant response rating, Corn ([13]; visual injury approx. 10 days) | Plant response rating, Blackgrass ([14]; visual injury approx. 10 days)
50: Plant response rating, Barnyardgrass ([6]; visual injury approx. 10 days)
30: Barnyardgrass plant response rating [1] | Plant response rating, Kochia ([7]; visual injury approx. 10 days)
60: Foxtail, Giant plant response rating [5] | Plant response rating, Ryegrass, Italian ([9]; visual injury approx. 10 days) | Plant response rating, Pigweed ([11]; visual injury approx. 10 days) | Plant response rating, Wheat ([12]; visual injury approx. 10 days)
80: Ryegrass, Italian plant response rating [9] | Foxtail, Giant plant response rating [10] | Pigweed plant response rating [11] | Wheat plant response rating [12] | Corn plant response rating [13]
70: Kochia plant response rating [7]
10: Ragweed plant response rating [3]

COC1CCCN(C(=O)c2cc(NS(=O)(=O)C(F)(F)F)c(Cl)cc2C)C1 (stereo not drawn) [Compound 146]
10: Plant response rating, Corn [13]
80: Kochia plant response rating [2] | Plant response rating, Kochia [2] | Barnyardgrass plant response rating [6] | Pigweed plant response rating [11]
0: Plant response rating, Blackgrass [14]
100: Plant response rating, Barnyardgrass [1] | Plant response rating, Ryegrass, Italian [4] | Foxtail, Giant plant response rating [5] | Plant response rating, Foxtail, Giant [5]
50: Kochia plant response rating [7] | Plant response rating, Pigweed [11] | Plant response rating, Wheat [12]
40: Plant response rating, Barnyardgrass [6] | Plant response rating, Kochia [7]
20: Plant response rating, Foxtail, Giant [10] | Corn plant response rating [13] | Blackgrass plant response rating [14]
30: Plant response rating, Ryegrass, Italian [9]
90: Barnyardgrass plant response rating [1] | Ryegrass, Italian plant response rating [4] | Ragweed plant response rating [8] | Foxtail, Giant plant response rating [10] | Plant response rating, Galium [15] | Galium plant response rating [15]
70: Plant response rating, Ragweed [3] | Ryegrass, Italian plant response rating [9]
60: Ragweed plant response rating [3] | Plant response rating, Ragweed [8] | Wheat plant response rating [12]

C#CCN(C)C(=O)c1cc(N(S(=O)(=O)C(F)(F)F)S(=O)(=O)C(F)(F)F)c(C)c(F)c1C [Compound 147]
60: Wheat plant response rating [12]
70: Kochia plant response rating [2] | Kochia plant response rating [7] | Ryegrass, Italian plant response rating [9] | Plant response rating, Foxtail, Giant [10] | Plant response rating, Pigweed [11]
10: Plant response rating, Corn [13]
50: Plant response rating, Kochia [7]
80: Corn plant response rating [13] | Plant response rating, Galium [15]
0: Plant response rating, Blackgrass [14]
90: Barnyardgrass plant response rating [1] | Plant response rating, Kochia [2] | Ragweed plant response rating [3] | Plant response rating, Ragweed [3] | Ryegrass, Italian plant response rating [4] | Foxtail, Giant plant response rating [5] | Plant response rating, Barnyardgrass [6] | Barnyardgrass plant response rating [6] | Plant response rating, Ragweed [8] | Ragweed plant response rating [8] | Foxtail, Giant plant response rating [10] | Pigweed plant response rating [11] | Galium plant response rating [15]
100: Plant response rating, Barnyardgrass [1] | Plant response rating, Ryegrass, Italian [4] | Plant response rating, Foxtail, Giant [5]
30: Plant response rating, Ryegrass, Italian [9] | Plant response rating, Wheat [12] | Blackgrass plant response rating [14]

Cc1cc(C)c(C2=NOC3CCCC23)cc1NS(=O)(=O)C(F)(F)F (stereo not drawn) [Compound 164]
90: Barnyardgrass plant response rating [1] | Ragweed plant response rating [3] | Foxtail, Giant plant response rating [5] | Barnyardgrass plant response rating [6] | Kochia plant response rating [7] | Ragweed plant response rating [8] | Ryegrass, Italian plant response rating [9] | Pigweed plant response rating [11] | Galium plant response rating [15]
0: Plant response rating, Foxtail, Giant [10] | Plant response rating, Corn [13] | Plant response rating, Blackgrass [14]
80: Ryegrass, Italian plant response rating [4] | Plant response rating, Barnyardgrass [6] | Plant response rating, Ryegrass, Italian [9] | Corn plant response rating [13] | Plant response rating, Galium [15]
40: Foxtail, Giant plant response rating [10] | Blackgrass plant response rating [14]
70: Plant response rating, Ragweed [8] | Plant response rating, Pigweed [11] | Wheat plant response rating [12]
60: Plant response rating, Kochia [7] | Plant response rating, Wheat [12]
100: Plant response rating, Barnyardgrass [1] | Kochia plant response rating [2] | Plant response rating, Kochia [2] | Plant response rating, Ragweed [3] | Plant response rating, Ryegrass, Italian [4] | Plant response rating, Foxtail, Giant [5]

Cc1cc(C(F)(F)F)c(NS(=O)(=O)C(F)(F)F)cc1C(=O)N1CCCCC1 [Compound 165]
100: Plant response rating, Kochia [2] | Plant response rating, Ragweed [3]
20: Barnyardgrass plant response rating [1]
70: Plant response rating, Ryegrass, Italian [4]
30: Plant response rating, Barnyardgrass [1] | Barnyardgrass plant response rating [6] | Ryegrass, Italian plant response rating [9]
10: Plant response rating, Kochia [7] | Blackgrass plant response rating [14]
60: Kochia plant response rating [7] | Ragweed plant response rating [8] | Plant response rating, Pigweed [11]
50: Ragweed plant response rating [3] | Ryegrass, Italian plant response rating [4]
0: Plant response rating, Barnyardgrass [6] | Plant response rating, Ragweed [8] | Plant response rating, Ryegrass, Italian [9] | Plant response rating, Foxtail, Giant [10] | Foxtail, Giant plant response rating [10] | Plant response rating, Wheat [12] | Wheat plant response rating [12] | Plant response rating, Corn [13] | Corn plant response rating [13] | Plant response rating, Blackgrass [14]
80: Foxtail, Giant plant response rating [5] | Plant response rating, Galium [15]
90: Kochia plant response rating [2] | Plant response rating, Foxtail, Giant [5] | Pigweed plant response rating [11] | Galium plant response rating [15]
